Reference: patent US20240285660A1, “COMPOSITION FOR WOUND RELIEF AND INHIBITING A PHD PROTEIN AND METHODS OF TREATMENT” (Curapep LLC, priority 2021, published 2024)
Several values for one entry are separate records, joined by “and”; a condition that tells them apart may be missing. Identical values can stand only once.

System: HIF1-a protein in L929 cells
Assay: In vitro HIF stabilization (HIF1-a ELISA, normalized to DNA content)
Type: cell-based
Settings: for level of HIF-1a compared to the negative control cells: alone, 0.01, 0.1, 1, 10 and 100 micromolar, L929 cells

SMILES | HIF content increase (normalized to the DNA content) compared to the negative control | level of HIF-1a compared to the negative control cells
[Cl-].[Cl-].[Co+2] [CoCl2] | 2.21 fold and 2.16 fold | 
O=c1cc(-c2ccccc2)oc2ccccc12 [Flavone, 2-phenylchromen-4-one] |  | either a decrease of HIF-1a or the same level of HIF-1a
O=c1c(-c2ccc(O)cc2)coc2c([C@@H]3O[C@H](CO)[C@@H](O)[C@H](O)[C@H]3O)c(O)ccc12 [Puerarin, 7-hydroxy-3-(4-hydroxyphenyl)-8-[(2S,3R,4R,5S,6R)-3,4,5-trihydroxy-6-(hydroxymethyl)oxan-2-yl]chromen-4-one] |  | either a decrease of HIF-1a or the same level of HIF-1a
